According to ChEMBL document CHEMBL5352388 (Eur J Med Chem, 2022):
The source made the active and inactive calls. No cut-off for these calls is given here.

Experiments:
[1] = Half life in human liver microsomes measured upto 60 mins in presence of NADPH by LC/MS/MS analysis; format: ADME, Microsome
[2] = Intrinsic clearance in human liver microsomes measured upto 60 mins in presence of NADPH by LC/MS/MS analysis; format: ADME, Microsome; details: read-out: CLH
[3] = Metabolic stability in human liver microsomes assessed as compound remaining measured upto 60 mins in presence of NADPH by LC/MS/MS analysis; format: ADME, Microsome; details: read-out: Stability
[4] = Metabolic stability in human liver microsomes assessed as compound remaining measured upto 60 mins by LC/MS/MS analysis; format: ADME, Microsome; details: read-out: Stability
[5] = target: CYP2C9 (Homo sapiens, UniProt P11712); assay: Inhibition of CYP2C9 (unknown origin) at 10 uM incubated for 20 mins in presence of NADPH by LC/MS/MS analysis relative to control; format: ADME
[6] = target: CYP2C19 (Homo sapiens, UniProt P33261); assay: Inhibition of CYP2C19 (unknown origin) at 10 uM incubated for 20 mins in presence of NADPH by LC/MS/MS analysis relative to control; format: ADME
[7] = target: Voltage-gated inwardly rectifying potassium channel KCNH2 (Homo sapiens, UniProt Q12809); assay: Inhibition of human ERG stably expressed in CHO cells by patch clamp assay; format: toxicity, cell-based
[8] = Tmax in Sprague-Dawley rat at 10 mg/kg,po by LC-MS/MS analysis; format: ADME, organism-based; details: in vivo
[9] = Cmax in Sprague-Dawley rat at 10 mg/kg,po by LC-MS/MS analysis; format: ADME, organism-based; parameters: dose 10 mg/kg, route po; details: in vivo
[10] = AUC (0-t) in Sprague-Dawley rat at 10 mg/kg,po by LC-MS/MS analysis; format: ADME, organism-based; parameters: dose 10 mg/kg, route po; details: in vivo
[11] = Oral bioavailability in Sprague-Dawley rat at 10 mg/kg by LC-MS/MS analysis; format: ADME, organism-based; details: in vivo
[12] = Half life in Sprague-Dawley rat at 3 mg/kg,iv by LC-MS/MS analysis; format: ADME, organism-based; details: in vivo
[13] = Clearance in Sprague-Dawley rat at 3 mg/kg,iv by LC-MS/MS analysis; format: ADME, organism-based; details: in vivo
[14] = AUC (0-t) in Sprague-Dawley rat at 3 mg/kg,iv by LC-MS/MS analysis; format: ADME, organism-based; parameters: dose 3 mg/kg, route iv; details: in vivo
[15] = AUC (0-infinity) in Sprague-Dawley rat at 3 mg/kg,iv by LC-MS/MS analysis; format: ADME, organism-based; parameters: dose 3 mg/kg, route iv; details: in vivo
[16] = test system: A549; assay: Inhibition of colony formation in human A549 cells at 2 uM; format: functional, cell-based
[17] = test system: A549; assay: Antiproliferative activity against human A549 cells assessed as reduction of Edu positive cells at 2 uM incubated for 48 hrs by EdU incorporation based laser scanning microscopic analysis; format: functional, cell-based
[18] = target: T1, Lysine-specific histone demethylase 1A (Homo sapiens, UniProt O60341); assay: Reversible inhibition of LSD-1 (unknown origin) by jump dilution assay
[19] = target: T1, Lysine-specific histone demethylase 1A; assay: Inhibition of LSD1 in human A549 cells assessed as increase in H3K4me2 protein level at 1 to 4 uM incubated for 72 hrs by Western blotting assay; format: cell-based; details: dose 1-4 µM
[20] = target: T1, Lysine-specific histone demethylase 1A; assay: Binding affinity to LSD1 in human A549 cells assessed as increase in thermal stability at 10 uM incubated for 1 hr by cellular thermal shift assay; format: cell-based
[21] = test system: A549; assay: Induction of apoptosis in human A549 cells at 4 uM incubated for 48 hrs by Annexin V-FITC/PI staining based flow cytometry method; format: functional
[22] = test system: A549; assay: Induction of apoptosis in human A549 cells assessed as upregulation of Bax at 1 to 4 uM incubated for 72 hrs by Western blotting assay; format: functional, cell-based; details: dose 1-4 µM
[23] = test system: A549; assay: Induction of apoptosis in human A549 cells assessed as downregulation of BCL-2 at 1 to 4 uM incubated for 72 hrs by Western blotting assay; format: functional, cell-based; details: dose 1-4 µM
[24] = test system: A549; assay: Antitumor activity against human A549 cells xenografted in BALB/c mouse assessed as reduction in tumor growth at 20 mg/kg,ip administrated for 15 days; format: functional, organism-based; details: time 15.0 day
[25] = Toxicity in BALB/c mouse xenografted with human A549 cells assessed as change in body weight at 20 mg/kg,ip administrated for 15 days; format: organism-based; details: in vivo, 360 h, time 15 day
[26] = test system: A549; assay: Antitumor activity against human A549 cells xenografted in BALB/c mouse assessed as reduction in KI67 positive cells at 10 mg/kg,ip administrated for 15 days; format: functional, organism-based; details: time 15.0 day
[27] = test system: A549; assay: Antitumor activity against human A549 cells xenografted in BALB/c mouse assessed as chromatin condensation at 20 mg/kg,ip administrated for 15 days; format: functional, organism-based; details: time 15.0 day
[28] = test system: A549; assay: Antitumor activity against human A549 cells xenografted in BALB/c mouse assessed as decrease in tumor cell density at 10 mg/kg,ip administrated for 15 days; format: functional, organism-based; details: time 15.0 day
[29] = target: T2, Amine oxidase [flavin-containing] A (Homo sapiens, UniProt P21397)
T2 sequence (P21397 whole entry): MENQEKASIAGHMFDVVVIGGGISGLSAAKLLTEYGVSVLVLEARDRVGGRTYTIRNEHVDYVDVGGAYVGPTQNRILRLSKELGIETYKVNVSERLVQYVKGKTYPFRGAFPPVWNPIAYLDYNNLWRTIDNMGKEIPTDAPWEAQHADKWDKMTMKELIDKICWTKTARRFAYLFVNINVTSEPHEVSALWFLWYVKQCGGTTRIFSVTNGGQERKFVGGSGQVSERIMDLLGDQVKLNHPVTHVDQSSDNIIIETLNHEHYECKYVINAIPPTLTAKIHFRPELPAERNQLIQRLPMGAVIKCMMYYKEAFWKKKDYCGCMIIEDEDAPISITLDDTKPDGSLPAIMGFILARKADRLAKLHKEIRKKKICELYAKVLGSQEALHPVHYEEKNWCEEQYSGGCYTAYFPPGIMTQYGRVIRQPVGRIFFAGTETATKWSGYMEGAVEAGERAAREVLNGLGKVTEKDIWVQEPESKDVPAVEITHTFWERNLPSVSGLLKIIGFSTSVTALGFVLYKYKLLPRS
Description: Inhibition of recombinant MAO-A (unknown origin) incubated for 60 mins by luminescence based flow cytometry

[30] = test system: A549; assay: cells; details: Homo sapiens, A549, 72 h
Description: Antiproliferative activity against human A549 cells assessed as inhibition of cell growth incubated for 72 hrs by CCK-8 assay

[31] = test system: NCI-H460; assay: cells; details: Homo sapiens, NCI-H460, 72 h
Description: Antiproliferative activity against human NCI-H460 cells assessed as inhibition of cell growth incubated for 72 hrs by CCK-8 assay

[32] = test system: MGC-803; assay: cells; details: Homo sapiens, MGC-803, 72 h
Description: Antiproliferative activity against human MGC-803 cells assessed as inhibition of cell growth incubated for 72 hrs by CCK-8 assay

CYP2C9, sequence (P11712 whole entry): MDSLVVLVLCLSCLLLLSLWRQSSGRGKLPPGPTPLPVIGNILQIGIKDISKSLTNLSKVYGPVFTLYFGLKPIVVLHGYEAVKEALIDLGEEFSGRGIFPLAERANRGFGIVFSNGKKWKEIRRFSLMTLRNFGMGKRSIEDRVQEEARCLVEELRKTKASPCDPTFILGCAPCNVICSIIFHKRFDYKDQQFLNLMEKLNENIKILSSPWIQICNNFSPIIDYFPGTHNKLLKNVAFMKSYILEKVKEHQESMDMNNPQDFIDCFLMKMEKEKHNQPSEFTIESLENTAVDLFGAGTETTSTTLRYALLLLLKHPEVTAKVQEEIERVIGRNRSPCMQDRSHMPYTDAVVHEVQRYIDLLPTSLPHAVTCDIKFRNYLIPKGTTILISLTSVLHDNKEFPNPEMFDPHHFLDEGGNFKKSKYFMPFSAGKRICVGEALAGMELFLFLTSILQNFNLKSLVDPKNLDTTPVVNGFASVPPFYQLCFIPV
Voltage-gated inwardly rectifying potassium channel KCNH2, sequence (Q12809 whole entry): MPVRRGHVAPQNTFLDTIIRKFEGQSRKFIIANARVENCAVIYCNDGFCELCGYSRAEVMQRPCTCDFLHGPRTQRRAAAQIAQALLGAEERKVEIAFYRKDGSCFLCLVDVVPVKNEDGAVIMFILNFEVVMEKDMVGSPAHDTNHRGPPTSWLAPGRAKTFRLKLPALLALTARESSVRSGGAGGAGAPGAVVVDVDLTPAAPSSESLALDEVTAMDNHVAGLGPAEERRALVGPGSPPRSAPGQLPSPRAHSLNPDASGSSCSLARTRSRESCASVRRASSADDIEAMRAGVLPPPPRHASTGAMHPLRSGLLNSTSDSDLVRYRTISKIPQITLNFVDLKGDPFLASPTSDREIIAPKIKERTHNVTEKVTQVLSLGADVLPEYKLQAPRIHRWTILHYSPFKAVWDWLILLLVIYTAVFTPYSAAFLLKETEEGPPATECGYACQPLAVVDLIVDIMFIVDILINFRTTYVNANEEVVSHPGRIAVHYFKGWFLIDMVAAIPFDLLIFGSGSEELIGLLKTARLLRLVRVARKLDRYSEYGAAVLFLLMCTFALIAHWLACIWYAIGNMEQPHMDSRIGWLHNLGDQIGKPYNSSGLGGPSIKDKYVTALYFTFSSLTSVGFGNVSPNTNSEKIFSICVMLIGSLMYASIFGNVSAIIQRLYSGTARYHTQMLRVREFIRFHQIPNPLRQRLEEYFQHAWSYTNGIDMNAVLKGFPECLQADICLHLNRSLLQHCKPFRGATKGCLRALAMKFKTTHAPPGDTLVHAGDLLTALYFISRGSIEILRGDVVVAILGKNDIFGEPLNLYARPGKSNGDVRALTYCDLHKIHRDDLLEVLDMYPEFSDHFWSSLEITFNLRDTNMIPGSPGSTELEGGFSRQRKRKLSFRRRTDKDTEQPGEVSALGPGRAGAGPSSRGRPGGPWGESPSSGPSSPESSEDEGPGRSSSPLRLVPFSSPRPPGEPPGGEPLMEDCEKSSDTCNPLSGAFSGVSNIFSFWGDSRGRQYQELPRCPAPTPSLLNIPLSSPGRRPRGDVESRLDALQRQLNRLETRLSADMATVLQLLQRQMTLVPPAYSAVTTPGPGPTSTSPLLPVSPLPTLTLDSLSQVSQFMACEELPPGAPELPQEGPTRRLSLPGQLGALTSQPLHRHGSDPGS
CYP2C19, sequence (P33261 whole entry): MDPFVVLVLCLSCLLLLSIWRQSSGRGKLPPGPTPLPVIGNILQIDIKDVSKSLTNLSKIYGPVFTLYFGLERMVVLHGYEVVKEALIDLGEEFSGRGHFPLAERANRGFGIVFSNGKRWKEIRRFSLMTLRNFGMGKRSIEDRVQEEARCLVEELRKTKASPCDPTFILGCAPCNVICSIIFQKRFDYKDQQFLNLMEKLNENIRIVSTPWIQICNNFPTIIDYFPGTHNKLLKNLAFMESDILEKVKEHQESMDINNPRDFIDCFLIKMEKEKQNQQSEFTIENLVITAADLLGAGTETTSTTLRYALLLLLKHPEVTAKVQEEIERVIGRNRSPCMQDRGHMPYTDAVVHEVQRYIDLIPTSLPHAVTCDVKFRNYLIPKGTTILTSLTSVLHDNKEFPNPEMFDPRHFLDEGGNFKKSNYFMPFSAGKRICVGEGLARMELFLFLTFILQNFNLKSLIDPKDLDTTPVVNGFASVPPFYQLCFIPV

SMILES: Cc1ccc(-c2cc3c(cc2-c2ccc(C#N)cc2)c(C(=O)N2CCC(N)CC2)cn3S(=O)(=O)c2ccc(F)cc2)cc1
- half-life [1]: 2.42 h
- microsomal CLint [2]: 9.6 µL/min/mg
- remaining at 1 h [3]: 79.2%
- remaining at 1 h [4]: 102%
- inhibition at 20 min, 10 µM [5]: 47.7%
- inhibition at 20 min, 10 µM [6]: 17.5%
- IC50 [7]: 5.11 µM
- Tmax [8]: 4 h
- Cmax [9]: 46.5 ng/mL
- AUC(0-t) [10]: 329 ng·h/mL
- bioavailability [11]: 7.49%
- half-life [12]: 8.78 h
- clearance [13]: 35.5 mL/min/kg
- AUC(0-t) [14]: 1320 ng·h/mL
- AUC(0-inf) [15]: 1450 ng·h/mL
- inhibition [16]: Active
- Activity [17]: Active
- inhibition [18]: Active
- inhibition [19]: Dose-Dependent Effect
- Activity [20]: Active
- Activity [21]: 52.5%
- Activity [22]: Dose-Dependent Effect
- Activity [23]: Dose-Dependent Effect
- Activity [24]: Active
- Activity [25]: Non-Toxic
- Activity [26]: Active
- Activity [27]: Active
- Activity [28]: Active
- IC50 [29]: 2.04 µM
- IC50 [30]: 0.74 µM
- IC50 [31]: 3.8 µM
- IC50 [32]: 5.8 µM
